Experimental data reported in ChEMBL document CHEMBL1147471, “Selecting against S1P3 enhances the acute cardiovascular tolerability of 3-(N-benzyl)aminopropylphosphonic acid S1P receptor agonists” (Bioorg Med Chem Lett, 2004).

Tests used:
in vivo [1] = details: rat, iv, 1 mg/kg
in vivo [2] = details: rat, iv, 1 mg/kg; remark: listed apart in the source
in vivo [3] = details: rat, plasma, iv, 1 mg/kg

Compound: CCCCCCCCOc1c(Br)cc(CNCCCP(=O)(O)O)cc1OC
- half-life (in vivo [1]): 2.1 h
- Vd (in vivo [2]): 1.4 L/kg
- clearance (in vivo [3]): 9.2 mL/min/kg
